Data on 1 molecule can be found in patent publication US5229413A, “Compositions containing indole-2-carboxylate compounds for treatment of CNS disorders” (G. D. Searle & Co., priority 1992, dated 1993).

A value given as a limit tells only on which side of the number the result lay.

Assay [1] concerns the target N-methyl-D-aspartate (NMDA) receptor site. Kind of assay: Glutamate (NMDA) binding assay, L-[3H]glutamate, synaptic plasma membranes. To be noted: L-[3H]glutamate 12.5 nM, pH 7.4, 0-4° C.; read-out: Ki apparent, NMDA. As to the method:
The purpose of this assay is to determine the binding affinity of a compound of Formula I for the N-methyl-D-aspartate (NMDA) receptor site. This procedure was carried out as follows:
Synaptic plasma membranes (SPM) were prepared as previously described [Monahan, J. B. and Michel, J., "Identification and Characterization of an N-methyl-D-aspartate-specific L-[^3 H]glutamate Recognition Site in Synaptic Plasma Membranes, J. Neurochem., 48, 1699-1708 (1987)]. The SPM were stored at a concentration of 10-15 mg/ml in 0.32 M sucrose, 0.5 mM EDTA, 1 mM MgSO4, 5 mM Tris/SO4, pH 7.4, under liquid nitrogen. The identity and purity of the subcellular fractions were confirmed by both electron microscopy and marker enzymes. Protein concentrations were determined by using a modification of the method of Lowry [Ohnishi, S. T. and Barr, J. K., "A Simplified Method of Quantitating Proteins Using the Biuret and Phenol Reagents", Anal. Biochem., 86, 193-197 (1978)]. The SPM were thawed at room temperature, diluted twenty-fold with 50 mM Tris/acetate, pH 7.4, incubated at 37° C. for 30 minutes, and centrifuged at 100,000 g for 15 minutes. The dilution, incubation, and centrifugation was repeated a total of three times. This general method involved adding 12.5 nM of the L-[^3 H]glutamate radioligand to the appropriate concentration of the test compound and initiating the assay by the addition of ice cold SPM (0.2-0.45 mg). The binding assays were performed in 1.5 ml centrifuge tubes with the total volume adjusted to 1.0 ml. Additions of test compounds were made in 50 mM Tris/acetate, pH 7.4 and incubations were carried out at 0°-4° C. The incubation time for the NMDA binding assay was 10 minutes. To terminate the incubation, the samples were centrifuged for 15 minutes at 12,000 g and 4° C. in a Beckman Microfuge 12. The supernatant was aspirated and the pelleted membranes dissolved in Beckman Ready-Protein scintillation cocktail and the samples counted on a Beckman LS 5800 or 3801 liquid scintillation counter with automatic corrections for quenching and counting efficiency. Nonspecific binding was defined as the residual binding in the presence of 0.5 mM NMDA and was typically 15-25% of the total binding in the NMDA binding assay. Radioligand binding to the SPM was analyzed using Scatchard and Hill transformations and the Ki values of the compounds determined using logit-log transformations. Calculations and regression analysis were performed using templates developed for Lotus 1, 2, 3 as previously described [Pullan, L. M. "Automated Radioligand Receptor Binding Analysis with Templates for Lotus", Computer Appln. Biosci., 3 131 (1987)]. Binding results are reported in Table II for example compounds of the invention.

Assay [2] concerns the target T1, strychnineinsensitive glycine recognition site (NMDA receptor-ion channel complex) (Rattus norvegicus, UniProt P35439).
T1 construct: Synaptic plasma membranes (SPM) were prepared from rat forebrain; from tissue; host or cells: rat forebrain synaptic plasma membranes
Kind of assay: Glycine binding assay, [3H]glycine, synaptic plasma membranes. The note with it: 10 nM [3H]glycine, pH 7.4, rat forebrain SPM; read-out: Ki apparent, Gly. The method, then: Synaptic plasma membranes (SPM) were prepared from rat forebrain and stored as previously described [J. B. Monahan and J. Michel, J. Neurochem, 48, 1699-1708 (1987)]. Frozen membranes were thawed and diluted 1:20 with 0.04% triton X-100 in 50 mM tris/acetate (pH 7.4). Following incubation at 37° C. for 30 min., the SPM were collected by centrifugation at 95,000 X g for 15 min. The pellet was resuspended in 50 mM tris/acetate (pH 7.4, triton-free) and hand-homogenized five times. The membranes were again centrifuged as above. The pellet was washed two additional times with 50 mM tris/acetate (without homogenization) and centrifuged. The final pellet was resuspended with homogenization in 50 mM tris/acetate.
In the general receptor binding assay procedure, 10 nM [^3 H]glycine was added to the appropriate concentration of the test compounds and the assay initiated by the addition of 0.2-0.4 mg of ice cold SPM. The assay, which was done in 1.5 ml centrifuge tubes, was adjusted to a total volume of 1.0 ml with all additions being made in 50 mM tris/ acetate, pH 7.4 at 4° C. After a 10 minute incubation at 2° C., the samples were centrifuged for 15 min. at 12,000 g (4° C.) in a Beckman Microfuge 12. The supernatant was aspirated and the tube tip containing the pelleted membranes cut off and agitated in 0.5 ml of Beckman BTS-450 tissue solubilizer for a minimum of 6 hours at room temperature. Beckman MP scintillation cocktail (5 ml) containing 7 ml/liter acetic acid was then added and the samples counted on a Beckman LS 5800 liquid scintillation counter with automatic corrections for quenching and counting efficiency. […] The binding of [^3 H]glycine to the SPM was analyzed using Scatchard and Hill transformations and the Ki for other compounds was determined using logit-log analysis. Calculations and regression analysis were performed using templates developed for Lotus 123 as previously described [Pullan et al, Id.].

The next assay relates to Cerebellar cGMP. Kind of assay: Assay for effect on cGMP (cerebellum, intracisternal injection). To be noted: ± SEM. The assay is classed as in vivo, Swiss Hausche mice. The method, then:
Male Swiss Hausche mice (25-30 g) were injected intracisternally (i.c.t.) with glycine agonists 10 minutes prior to sacrifice by focussed microwave irradiation. Compounds of the invention were injected intracisternally 2 minutes prior to the agonist. For intracisternal injections, al agonists were dissolved in HCl and diluted with isotonic saline prior to adjustment of the pH to between 6 and 7 with NaOH. The compounds of the invention were dissolved in isotonic saline and all compounds were administered in a volume of 5 μl.
Hydrochloric acid in extracts of the cerebellum were freeze-dried for assay of cGMP with a commercial RIA kit (NEN). Protein determinations (Lowery) and statistics (Dunett's t-test) were performed as described previously [P. L. Wcod et al., Neurochem., 19, 975-982 (1980)]. Groups consisted of 7-10 mice.

Take `O=C(O)Cc1c(C(=O)O)[nH]c2cc(Cl)ccc12` [Compound No. 6, 2-carboxy-6-chloro-3-indoleacetic acid]: the Ki was > 100 µM in assay [1] and 1.3 µM in assay [2]. The “Cerebellar cGMP” value in the assay on Cerebellar cGMP (Compound No. 6 (5 μg) alone) is listed as 3.5 ± 0.55 pmol/mg protein; in the assay on Cerebellar cGMP (D-Serine (100 μg) + Compound No. 6 (5 μg)), 5.8 ± 0.96 pmol/mg protein.
